Test system: FGFR
Assay: Kinase inhibition, cell-free enzymatic assay
Assay type: biochemical
Conditions: 1 mM ATP

Cc1ccc(F)c(NC(=O)Nc2ccc(-c3cccc4[nH]nc(N)c34)cc2)c1 [RTK Inhibitor, N-[4-(3-amino-1H-indazol-4-yl)phenyl]-N′-(2-fluoro-5-methylphenyl)urea]
IC50: > 12.5 µM
